Where two headings read alike, the source gives them in different places.
Tested on: circBRIP1 in HCT116 cells
Assay: DHX9 circBRIP1 cellular target engagement SYBR Green assay (qPCR)
Assay type: cell-based
Conditions: Homo sapiens
[1] = HCT-116, circBRIP1, HCT116 cells, SyBr assay (marked ^+), read-out: DHX9 Cellular Target Engagement EC50
[2] = HCT-116, circBRIP1, HCT116 cells, ^+ SyBr assay was used, read-out: DHX9 Cellular Target Engagement EC50

EC50 [1] [nM] | Structure (SMILES) | further results
4340 | CC(=O)N1CCN(c2ccnc(-n3cc(C(=O)Nc4cc(Cl)cc(NS(C)(=O)=O)c4)cn3)c2)CC1 [Example 148, 1-[4-(4-acetylpiperazin-1-yl)pyridin-2-yl]-N-(3-chloro-5-methanesulfonamidophenyl)-1H-pyrazole-4-carboxamide] | –
> 10000 | CS(=O)(=O)Nc1cc(Cl)cc(NC(=O)c2cnn(C3CC4(CNC4)C3)c2)c1 [Example 146] | –
751 | CC(C)(O)COc1cccnc1-n1cc(C(=O)Nc2cc(Cl)cc(NS(C)(=O)=O)c2)cn1 [Example 195] | –
382 | CS(=O)(=O)Nc1cc(Cl)cc(NC(=O)c2cnn(-c3cc(N4CCOCC4)ccn3)c2)c1 [Example 91] | –
4190 | Cc1cccc(C#N)c1-n1cc(C(=O)Nc2cc(Br)cc(NS(C)(=O)=O)c2)cn1 [Example 44] | –
6800 | CC(Oc1cccnc1-n1cc(C(=O)Nc2cc(Cl)cc(NS(C)(=O)=O)c2)cn1)c1ccccc1 (stereo not shown) [Example 62] | –
2090 | CS(=O)(=O)Nc1cc(Cl)cc(NC(=O)c2cc(CN)n(-c3ccccn3)c2)c1 [Example 181] | –
97.9 | CCn1cc(C(=O)Nc2cc(Cl)cc(NS(C)(=O)=O)c2)cc1-c1ccc(N2CCOCC2)cn1 [Example 274] | –
911 | Cn1cc(C(=O)Nc2cc(Cl)cc(NS(C)(=O)=O)c2)cc1Br [Example 83, 5-bromo-N-(3-chloro-5-(methylsulfonamido)phenyl)-1-methyl-1H-pyrrole-3-carboxamide] | –
> 10000 | CS(=O)(=O)Nc1cc(Cl)cc(NC(=O)c2cnn(CCc3ccccc3)c2)c1 [Example 308] | –
190 | CS(=O)(=O)Nc1cc(Cl)cc(NC(=O)c2cc(-c3ccc(N4CCOCC4)cn3)n(CC(F)(F)F)c2)c1 [Example 275] | –
29.5 | CCS(=O)(=O)Nc1cc(Cl)cc(NC(=O)c2cc(C)n(-c3ccc(N4CCOCC4)cn3)c2)c1 [Example 249] | –
1420 | CS(=O)(=O)Nc1cc(Br)cc(NC(=O)c2cnn(-c3ccccc3CO)c2)c1 [Example 161, N-(3-bromo-5-(methylsulfonamido)phenyl)-1-(2-(hydroxymethyl)phenyl)-1H-pyrazole-4-carboxamide] | –
661 | CS(=O)(=O)Nc1cc(Cl)cc(NC(=O)c2cnn(-c3ncccc3OCc3ccc(F)cc3)c2)c1 [Example 69] | –
341 | CS(=O)(=O)Nc1cc(Cl)cc(NC(=O)c2cnn(-c3ncc(F)cc3OCc3cccc(C#N)c3)c2)c1 [Example 203] | –
2370 | COc1ccc(-n2cc(C(=O)Nc3cc(Cl)cc(NS(C)(=O)=O)c3)cn2)nc1 [Example 197] | –
5640 | CS(=O)(=O)Nc1cc(Cl)cc(NC(=O)c2cnn(-c3ncccc3OCc3ccncc3)c2)c1 [Example 64] | –
7430 | CS(=O)(=O)Nc1cc(Br)cc(NC(=O)c2cnn(-c3cccc(C(F)F)n3)c2)c1 [Example 56] | –
1120 | CCn1cc(C(=O)Nc2cc(Cl)cc(NS(C)(=O)=O)c2)cc1-c1ccccc1 [Example 79, N-(3-chloro-5-(methylsulfonamido)phenyl)-1-ethyl-5-phenyl-1H-pyrrole-3-carboxamide] | –
6730 | CS(=O)(=O)Nc1cc(Cl)cc(NC(=O)c2cnn(-c3ncccc3Oc3ncccn3)c2)c1 [Example 196] | –
4340 | CS(=O)(=O)Nc1cc(Br)cc(NC(=O)c2cnn(-c3ccc(C#N)cn3)c2)c1 [Example 41] | –
1060 | CS(=O)(=O)Nc1cc(Cl)cc(NC(=O)c2cnn(-c3ccc(N4CCCC4=O)cn3)c2)c1 [Example 90] | –
834 | CS(=O)(=O)Nc1cc(Cl)cc(NC(=O)c2cnn(-c3cc(N4CCNCC4)ccn3)c2)c1 [Example 147] | –
> 10000 | CC(=O)N1CC2(CC(n3cc(C(=O)Nc4cc(Cl)cc(NS(C)(=O)=O)c4)cn3)C2)C1 [Example 313] | –
4650 | CS(=O)(=O)Nc1cc(Cl)cc(NC(=O)c2cnn(-c3ccccc3Oc3cccc(F)c3)c2)c1 [Example 265] | –
> 10000 | CS(=O)(=O)Nc1cc(Cl)cc(NC(=O)c2cnn([C@H]3CC[C@H](O)CC3)c2)c1 (single isomer, unassigned) [Example 154] | –
1410 | CS(=O)(=O)Nc1cc(Br)cc(NC(=O)c2cnn(-c3ccccc3C=O)c2)c1 [Example 58] | –
> 10000 | CS(=O)(=O)Nc1cc(Cl)cc(NC(=O)c2cnn(C3CC4(COC4)C3)c2)c1 [Example 128] | –

The remaining lines, values behind:

Structure (SMILES) | EC50 [1] [nM] | further results
Cc1sc(C(=O)Nc2cc(Cl)cc(NS(C)(=O)=O)c2)cc1-c1cn(-c2ccccc2)nn1 [Example 236] | 106 | –
CS(=O)(=O)Nc1cc(Cl)cc(NC(=O)c2cnn(C3CCCC3OCc3ccccc3)c2)c1 (stereo not shown) [Example 424] | – | EC50 [2]: 4110 nM
CS(=O)(=O)Nc1cc(Cl)cc(NC(=O)c2cnn(-c3ncccc3Oc3cccc(F)c3)c2)c1 [Example 427] | – | EC50 [2]: 305 nM
CS(=O)(=O)Nc1cc(Cl)cc(NC(=O)c2cc(Cl)n(-c3ncc(F)cn3)c2)c1 [Example 709] | – | EC50 [2]: 1240 nM
CS(=O)(=O)Nc1cc(Cl)cc(NC(=O)c2cc(-c3ncccc3Oc3cccnc3)cs2)c1 [Example 239] | 348 | –
COc1ccc2cc(C(=O)Nc3cc(Cl)cc(NS(C)(=O)=O)c3)sc2c1 [Example 327] | 3540 | –
CS(=O)(=O)Nc1cc(F)cc(NC(=O)c2cc(Br)cs2)c1 [Example 71, 4-bromo-N-(3-fluoro-5-(methylsulfonamido)phenyl)thiophene-2-carboxamide] | – | EC50 (HCT-116, read-out: DHX9 Cellular Target Engagement EC50): 26300 nM
COc1cccc2sc(C(=O)Nc3cc(Cl)cc(NS(C)(=O)=O)c3)cc12 [Example 321] | 241 | –
CS(=O)(=O)Nc1cc(Cl)cc(NC(=O)c2cnn(-c3c(F)cccc3OCc3cnco3)c2)c1 [Example 721] | – | EC50 [2]: 1570 nM
Cc1ccc2sc(C(=O)Nc3cc(Cl)cc(NS(C)(=O)=O)c3)cc2c1 [Example 331] | 3750 | –
Cc1sc(C(=O)Nc2cc(Cl)cc(NS(C)(=O)=O)c2)cc1-c1ncc(F)cc1-c1ccn(C)c(=O)c1 [Example 605] | – | EC50 [2]: 5330 nM
CS(=O)(=O)Nc1cc(Cl)cc(NC(=O)c2cc(-c3ccccc3)co2)c1 [Example 7] | 24200 | –
Cn1nc(-c2ccccn2)cc1C(=O)Nc1cc(Cl)cc(NS(C)(=O)=O)c1 [Example 141] | > 10000 | –
CS(=O)(=O)Nc1cc(Cl)cc(NC(=O)c2nc(-c3ccccc3)c[nH]2)c1 [Example 9] | 30000 | –
CS(=O)(=O)Nc1cc(Cl)cc(NC(=O)c2cc3c(F)ccc(F)c3s2)c1 [Example 325] | 6090 | –
COC(=O)[C@@H]1CCCN1c1csc(C(=O)Nc2cc(Cl)cc(NS(C)(=O)=O)c2)c1 [Example 242] | 5020 | –
CS(=O)(=O)Nc1cc(Cl)cc(NC(=O)c2cc(-c3ncccc3NC(=O)C3CC3)cs2)c1 [Example 220] | 303 | –
CS(=O)(=O)Nc1cc(F)cc(NC(=O)c2cc(-c3ccccn3)cs2)c1 [Example 112, N-(3-fluoro-5-(methylsulfonamido)phenyl)-4-(pyridin-2-yl)thiophene-2-carboxamide] | 627 | –

Structure (SMILES) | EC50 [1] [nM] | further results
CS(=O)(=O)Nc1cc(Cl)cc(NC(=O)c2cc3c(s2)CCC3Oc2cccnc2)c1 (stereo not shown) [Example 687] | – | EC50 [2]: 3560 nM
COc1cc(F)cnc1-n1cc(C(=O)Nc2cc(Cl)cc(NS(C)(=O)=O)c2)cc1C [Example 393] | – | EC50 [2]: 133 nM
Cc1cc(C(=O)Nc2cc(Br)cc(NS(C)(=O)=O)c2)cn1C1CCCCC1 [Example 85, N-(3-bromo-5-(methylsulfonamido)phenyl)-1-cyclohexyl-5-methyl-1H-pyrrole-3-carboxamide] | 2760 | –
Cc1cccnc1-n1cc(C(=O)Nc2cc(Br)cc(NS(C)(=O)=O)c2)cc1C [Example 45] | 563 | –
Cn1cc(C(=O)Nc2cc(Cl)cc(NS(C)(=O)=O)c2)cc1-c1ncc(F)cc1-c1cncc(F)c1 [Example 604, N-(3-chloro-5-methanesulfonamidophenyl)-5-{5,5′-difluoro-[3,3′-bipyridin]-2-yl}-1-methylpyrrole-3-carboxamide] | – | EC50 [2]: 160 nM
Cn1cc(C(=O)Nc2cc(Cl)cc(NS(C)(=O)=O)c2)cc1-c1ncc(Cl)cn1 [Example 577] | – | EC50 [2]: 153 nM
CS(=O)(=O)Nc1cc(Cl)cc(NC(=O)c2cn(-c3ccccc3)cn2)c1 [Example 1, N-(3-chloro-5-(methylsulfonamido)phenyl)-1-phenyl-1H-imidazole-4-carboxamide] | 16400 | –
CS(=O)(=O)Nc1cc(Cl)cc(NC(=O)c2cc(-c3ncccc3Cc3ncccn3)cs2)c1 [Example 384] | 122 | –
Cc1cc(C(=O)Nc2cc(Cl)cc(NS(C)(=O)=O)c2)cn1-c1ncc(S(C)(=O)=O)cn1 [Example 656] | – | EC50 [2]: 239 nM
Cc1cncc2cc(C(=O)Nc3cc(Cl)cc(NS(C)(=O)=O)c3)sc12 [Example 290] | > 10000 | –
Cc1sc(C(=O)Nc2cc(Cl)cc(NS(C)(=O)=O)c2)cc1-c1ncc(F)cc1-c1cnco1 [Example 705] | – | EC50 [2]: 679 nM
CS(=O)(=O)Nc1cc(Cl)cc(NC(=O)c2cnn(-c3ncc(N4CCOCC4)cn3)c2)c1 [Example 394] | – | EC50 [2]: 4230 nM
Cc1sc(C(=O)Nc2cc(Cl)cc(NS(C)(=O)=O)c2)cc1-c1cn(C2CCOCC2)nn1 [Example 692] | – | EC50 [2]: 142 nM
Cc1sc(C(=O)Nc2cc(Cl)cc(NS(C)(=O)=O)c2)cc1-c1ncc(F)cc1-c1cncc(F)c1 [Example 607] | – | EC50 [2]: 126 nM
CS(=O)(=O)Nc1cc(Cl)cc(NC(=O)c2cnn(C3CCN(CC(F)(F)F)CC3)c2)c1 [Example 316] | 4920 | –
CN(C)C(=O)Cc1cccnc1-c1csc(C(=O)Nc2cc(Cl)cc(NS(C)(=O)=O)c2)c1 [Example 221] | 121 | –
CC(C)(C)OC(=O)N1CC2(CC(n3cc(C(=O)Nc4cc(Cl)cc(NS(C)(=O)=O)c4)cn3)C2)C1 [Example 144, tert-butyl 6-(4-((3-chloro-5-(methylsulfonamido)phenyl)carbamoyl)-1H-pyrazol-1-yl)-2-azaspiro[3.3]heptane-2-carboxylate] | 5850 | –
CCS(=O)(=O)Nc1cc(Cl)cc(NC(=O)c2cc(-c3ncccn3)n(C)c2)c1 [Example 173, N-(3-chloro-5-(ethylsulfonamido)phenyl)-1-methyl-5-(pyrimidin-2-yl)-1H-pyrrole-3-carboxamide] | 118 | –

Source: patent publication US12162867B2, “Inhibitors of RNA helicase DHX9 and uses thereof” (ACCENT THERAPEUTICS, INC., priority 2022, dated 2024)
